Experimental data taken from ChEMBL document CHEMBL3351596, “Design, synthesis and anti-leishmanial activity of novel symmetrical bispyridinium cyclophanes” (Eur J Med Chem, 2015).
pEC50: −log10 of the molar value. Calls of active or inactive are those of the source. The calls are words filed in the database; no cut-off is given here.

Columns and labels:
[1] = Selectivity index, ratio of EC50 for human THP1 cells to EC50 for Leishmania major MHOM/JL/80/ Friedlin amastigotes infected in human THP1 cells; assay type: toxicity, cell-based, THP-1; conditions: read-out: Ratio EC50
Leishmania donovani [2] = test: Anti-leishmanial activity against Leishmania donovani MHOM/IND/80/Dd8 amastigotes infected in human THP1 cells incubated for 72 hrs at 37 degC by DAPI staining based assay; assay type: functional, organism-based; conditions: MHOM/IND/80/Dd8, THP-1, 72 h
THP-1 = test: Cytotoxicity against human THP1 cells after 48 hrs by MTT assay; assay type: cell-based; conditions: THP-1, 48 h
Leishmania major [3] = test: Anti-leishmanial activity against Leishmania major MHOM/JL/80/ Friedlin promastigotes incubated for 72 hrs at 28 degC; assay type: functional, organism-based
Leishmania major [4] = test: Anti-leishmanial activity against Leishmania major MHOM/JL/80/ Friedlin amastigotes infected in human THP1 cells incubated for 72 hrs at 37 degC by DAPI staining based assay; assay type: functional, organism-based; conditions: THP-1, 72 h
[5] = Selectivity index, ratio of EC50 for human THP1 cells to EC50 for Leishmania donovani MHOM/IND/80/Dd8 amastigotes infected in human THP1 cells; assay type: toxicity, cell-based, THP-1; conditions: read-out: Ratio EC50
Leishmania donovani [6] = test: Anti-leishmanial activity against Leishmania donovani MHOM/IND/80/Dd8 promastigotes incubated for 72 hrs at 28 degC; assay type: functional, organism-based; conditions: MHOM/IND/80/Dd8, 72 h
Leishmania donovani [7] = test: Anti-leishmanial activity against Leishmania donovani MHOM/IND/80/Dd8 amastigotes expressing pXG empty vector infected in human THP1 cells incubated for 72 hrs at 37 degC; assay type: functional, organism-based; conditions: MHOM/IND/80/Dd8, THP-1, 72 h
Leishmania donovani [8] = test: Induction of plasma membrane depolarization in Leishmania donovani MHOM/IND/80/Dd8 promastigotes at 30 uM after 3 hrs by […] dye based fluorescence assay; assay type: functional, organism-based
Leishmania donovani [9] = test: Anti-leishmanial activity against Leishmania donovani MHOM/IND/80/Dd8 promastigotes expressing pXG-CEK incubated for 72 hrs at 28 degC; assay type: functional, organism-based; conditions: MHOM/IND/80/Dd8, 72 h
[10] = Selectivity index, ratio of EC50 for Leishmania donovani MHOM/IND/80/Dd8 promastigotes to EC50 for Leishmania major MHOM/JL/80/ Friedlin promastigotes; assay type: functional
Leishmania major [11] = test: Reduction in ATP level in Leishmania major MHOM/JL/80/ Friedlin promastigotes at 0.2 uM after 1 hr by cell-titer-Glo luminescence assay; assay type: functional
Leishmania major [12] = test: Effect on mitochondrial membrane potential in Leishmania major MHOM/JL/80/ Friedlin promastigotes at 0.2 uM after 1 hr by […] dye based fluorescence assay; assay type: functional, organism-based
Leishmania donovani [13] = test: Anti-leishmanial activity against Leishmania donovani MHOM/IND/80/Dd8 amastigotes expressing pXG-EK infected in human THP1 cells incubated for 72 hrs at 37 degC; assay type: functional, organism-based; conditions: MHOM/IND/80/Dd8, THP-1, 72 h
Leishmania donovani [14] = test: Anti-leishmanial activity against Leishmania donovani MHOM/IND/80/Dd8 promastigotes expressing pXG empty vector incubated for 72 hrs at 28 degC; assay type: functional, organism-based; conditions: MHOM/IND/80/Dd8, 72 h
Leishmania donovani [15] = test: Anti-leishmanial activity against Leishmania donovani MHOM/IND/80/Dd8 promastigotes incubated for 72 hrs at 28 degC in presence of 10 mM ethanolamine; assay type: functional, organism-based; conditions: MHOM/IND/80/Dd8, 72 h
Leishmania major [16] = test: Reduction in ATP level in Leishmania major MHOM/JL/80/ Friedlin promastigotes at 0.2 uM measured up to 3 hrs by cell-titer-Glo luminescence assay; assay type: functional, organism-based
Leishmania donovani [17] = test: Effect on mitochondrial membrane potential in Leishmania donovani MHOM/IND/80/Dd8 promastigotes at 30 uM after 3 hrs by […] dye based fluorescence assay; assay type: functional, organism-based
Leishmania major [18] = test: Reduction in ATP level in Leishmania major MHOM/JL/80/ Friedlin promastigotes at 30 uM after 3 hrs by cell-titer-Glo luminescence assay; assay type: functional
Leishmania donovani [19] = test: Anti-leishmanial activity against Leishmania donovani MHOM/IND/80/Dd8 promastigotes expressing pXG-EK incubated for 72 hrs at 28 degC; assay type: functional, organism-based; conditions: MHOM/IND/80/Dd8, 72 h
Leishmania major [20] = test: Induction of plasma membrane depolarization in Leishmania major MHOM/JL/80/ Friedlin promastigotes at 0.2 uM after 1 hr by […] dye based fluorescence assay; assay type: functional, organism-based
Leishmania donovani [21] = test: Anti-leishmanial activity against Leishmania donovani MHOM/IND/80/Dd8 promastigotes incubated for 72 hrs at 28 degC in presence of 10 mM choline; assay type: functional, organism-based; conditions: MHOM/IND/80/Dd8, 72 h
Leishmania donovani [22] = test: Reduction in ATP level in Leishmania donovani MHOM/IND/80/Dd8 promastigotes at 30 uM after 3 hrs by cell-titer-Glo luminescence assay; assay type: functional, organism-based
Leishmania donovani [23] = test: Anti-leishmanial activity against Leishmania donovani MHOM/IND/80/Dd8 amastigotes expressing pXG-CEK infected in human THP1 cells incubated for 72 hrs at 37 degC; assay type: functional, organism-based; conditions: MHOM/IND/80/Dd8, THP-1, 72 h

Row | SMILES | selectivity ratio [1] | pEC50 (Leishmania donovani [2]) | pEC50 (THP-1) | pEC50 (Leishmania major [3]) | pEC50 (Leishmania major [4]) | selectivity ratio [5] | pEC50 (Leishmania donovani [6]) | further results
1 | C[C@@H]1[C@H](O)[C@@H](C)/C=C/C=C/C=C/C=C/C=C/C=C/C=C/[C@H](O[C@@H]2O[C@H](C)[C@@H](O)[C@H](N)[C@@H]2O)C[C@@H]2O[C@](O)(C[C@@H](O)C[C@@H](O)[C@H](O)CC[C@@H](O)C[C@@H](O)CC(=O)O[C@H]1C)C[C@H](O)[C@H]2C(=O)O [AMPHOTERICIN B] | 59.7 | 6.55 | 4.84 | 6.49 | 6.62 | 51.1 | 6.68 | 
2 | c1c[n+]2ccc1NCCCCCNc1cc[n+](cc1)CCCCC2 | 122 | 5.12 | 3.81 | 7.15 | 5.90 | 20.2 | 4.97 | pEC50 (Leishmania donovani [7]): 5.05; Activity (Leishmania donovani [8]): inactive; pEC50 (Leishmania donovani [9]): 4.94; Ratio EC50 [10]: 100; inhibition at 0.2 µM (Leishmania major [11]): > 50%; Activity (Leishmania major [12]): inactive; pEC50 (Leishmania donovani [13]): 4.98; pEC50 (Leishmania donovani [14]): 4.87; pEC50 (Leishmania donovani [15]): 4.92; inhibition (Leishmania major [16]): Active; Activity (Leishmania donovani [17]): inactive; inhibition at 30 µM (Leishmania major [18]): 95%; pEC50 (Leishmania donovani [19]): 4.92; Activity (Leishmania major [20]): Active; pEC50 (Leishmania donovani [21]): 4.94; inhibition (Leishmania donovani [22]): inactive; pEC50 (Leishmania donovani [23]): 4.90
3 | c1c[n+]2ccc1NCCOCCNc1cc[n+](cc1)CCOCC2 | 57.2 | 4.68 | 3.89 | 6.72 | 5.65 | 6.2 | 4.63 | 
4 | c1cc2cc(c1)C[n+]1ccc(cc1)NCCOCCNc1cc[n+](cc1)C2 | 121 | 4.67 | 3.71 | 5.54 | 5.79 | 9.2 | 4.12 | 
5 | c1c[n+]2ccc1NCCOCCNc1cc[n+](cc1)CCCCC2 | 62.7 | 4.48 | 3.79 | 6.59 | 5.59 | 4.9 | 4.50 | 
6 | c1cc2ccc1CNc1cc[n+](cc1)CCOCC[n+]1ccc(cc1)NC2 | 12.9 | 4.20 | 3.65 | 4.58 | 4.77 | 3.5 | 4.11 | 
7 | c1cc2cc(c1)CNc1cc[n+](cc1)CCOCC[n+]1ccc(cc1)NC2 | 22.5 | 5.05 | 3.71 | 5.22 | 5.06 |  | 4.47 | 
8 | CCCCCCCCCCCCCCCCOP(=O)([O-])OCC[N+](C)(C)C [MILTEFOSINE] | 2.5 | 6.06 | 4.57 | 4.78 | 4.97 | 30.5 | 5.18 | 
9 | c1cc2ccc1CNc1cc[n+](cc1)CCCCC[n+]1ccc(cc1)NC2 | 170 | 4.42 | 3.78 | 6.77 | 6.01 | 4.3 | 4.58 | 
10 | c1c[n+]2ccc1NCCCCCNc1cc[n+](cc1)CCOCC2 | 98.5 | 4.89 | 3.67 | 6.59 | 5.66 | 16.6 | 4.50 | 
11 | c1cc2cc(c1)CNc1cc[n+](cc1)CCCCC[n+]1ccc(cc1)NC2 | 32.3 | 4.87 | 3.72 | 4.77 | 5.23 | 14.2 | 4.28 | 
